# Data as given in patent US20190380954A1, “Bone Regeneration Agent” (Kao Corporation, priority 2017, published 2019).
# Tests used:
# gums = details: niacin or an ester compound thereof, intraoral composition; cited from earlier work
# [1] = system: alveolar bone of rats with ligature-induced periodontitis; details: niacin 25 mM in PBS, 100 μL dropped onto right and left second molars twice a day for 4 weeks after ligature removal; compared to PBS group; base line group 0%, Sham group 100%; Tukey, 5%
# Description: Twenty-eight 8-week-old male Wister Rats were purchased from Japan SLC, Inc., and the rats were acclimated for one week. Subsequently, the body weights of the rats were measured, and the rats were assigned into four groups (base line group, Sham group, PBS group, and niacin group) such that the average body weights of the groups would be even.
# Under isoflurane inhalation anesthesia, No. 3-0 nylon sutures (manufactured by Akiyama Seisakusho Co., Ltd.) were ligated to the right and left second molars in the upper jaw of the rats of the base line group, PBS group, and niacin group to induce periodontitis, and the rats of the respective groups were reared for two weeks. […]
# After rearing for two weeks, the ligatures (No. 3-0 nylon sutures described above) were excised from the rats of the PBS group and the niacin group. For the base line group, the rats were euthanized by bleeding from the abdominal aorta under isoflurane inhalation anesthesia, and the alveolar bone resorption depths of the respective groups were measured by the following method. […]
# The alveolar bone regeneration amount of the base line group was designated as 0%, and the alveolar bone regeneration amount of the Sham group was designated as 100%. Thus, the alveolar bone regeneration amounts of the PBS group and the niacin group were calculated from the average alveolar bone resorption depth thus calculated. […]
# [2] = system: periodontal disease model rat; details: suppression of alveolar bone resorption is not reported; cited from earlier work
# [3] = system: gums / periodontal pocket; details: blood circulation enhancers such as vitamin E; cited from earlier work
compound,measurement,setting,value
"O=C(O)c1cccnc1 [niacin, niacin (nicotinic acid)]",blood circulation in the gums,gums,promotes blood circulation in the gums
same,regeneration amount of the alveolar bone,[1],significantly increased
vitamin E,inflammatory response,[2],suppresses inflammatory response
same,Gingival index (swelling of gums),[3],do not improve
same,"Periodontal probing depth (depth of periodontal pocket, reflecting extent of alveolar bone resorption)",[3],do not improve
